Experimental data: patent US12410164B2, “Heterocyclic compounds and medical use thereof” (FONDAZIONE TELETHON, priority 2018, dated 2025)

Experiments:
[1] = system: calcium-dependent chloride secretion; assay: Short-circuit current in bronchial epithelial cells: UTP-activated, inh-A01-inhibited chloride secretion; type: cell-based, human; details: compound 10 μM, activated with UTP
Method: FIG. 3. PP008 corrective activity on primary epithelial cells. (A) The representative plots and (B) the bar chart show the results obtained by treating bronchial epithelial cells from a patient homozygous for the mutation F508del with PP008 (10 μM) in the presence and absence of VX-809 (1 μM). As control, cells were treated for 24 h with vehicle alone (dimethylsufoxide, DMSO) at the same concentration (0.1%) used to add test compounds. […] (C) Results obtained on nasal epithelial cells of a homozygous F508del patient. *, p<0.05; ***, p<0.001.
The culture and functional study of human primary nasal and bronchial epithelial cells have been described in detail above (Scudieri P, et al. J Physiol. 2012, 590, 6141-6155). Briefly, nasal epithelial cells were taken after informed consent using the “brushing” technique. […] With this mode, the transepithelial potential difference is locked to zero and the resulting current, supplied by the Voltage Clamp is recorded by an AD/DA converter (PowerLab, ADInstruments).

[2] = biological target: F508del-CFTR (Homo sapiens, UniProt P13569, DEL508-508); assay: Transepithelial short-circuit current in primary nasal epithelial cells of F508del homozygous CF patient; type: cell-based; set-up: endogenous in cells; host or cells: primary bronchial and nasal epithelial cells from CF patients homozygous for F508del; details: FIG. 3C
From the text: The culture and functional study of human primary nasal and bronchial epithelial cells have been described in detail above (Scudieri P, et al. J Physiol. 2012, 590, 6141-6155). Briefly, nasal epithelial cells were taken after informed consent using the “brushing” technique. Bronchial cells were instead obtained by proteolytic digestion of bronchi isolated from the lungs of patients (suffering from CF or other pulmonary pathology (idiopathic pulmonary fibrosis, pulmonary hypertension, emphysema) subjected to transplant operations. The informed consent of the patients was obtained also in this case. After isolation, epithelial cells were cultured in a liquid medium of defined serum-free composition. This medium consists of a mixture of LHC9/RPMI 1640 (1:1) enriched with various hormones and growth factors (Scudieri P, et al. J Physiol. 2012, 590, 6141-6155). After 3-5 passages, necessary for the expansion of the initial number, the cells were seeded at high density on Snapwell porous supports (Corning, 3801). After 24 hours, the culture medium was replaced by a mixture consisting of DMEM and Ham's F12 (1:1) enriched with 2% foetal bovine serum and other supplements. […] With this mode, the transepithelial potential difference is locked to zero and the resulting current, supplied by the Voltage Clamp is recorded by an AD/DA converter (PowerLab, ADInstruments).

F508del-CFTR, sequence (P13569 with tags, fused parts or gaps DEL508-508): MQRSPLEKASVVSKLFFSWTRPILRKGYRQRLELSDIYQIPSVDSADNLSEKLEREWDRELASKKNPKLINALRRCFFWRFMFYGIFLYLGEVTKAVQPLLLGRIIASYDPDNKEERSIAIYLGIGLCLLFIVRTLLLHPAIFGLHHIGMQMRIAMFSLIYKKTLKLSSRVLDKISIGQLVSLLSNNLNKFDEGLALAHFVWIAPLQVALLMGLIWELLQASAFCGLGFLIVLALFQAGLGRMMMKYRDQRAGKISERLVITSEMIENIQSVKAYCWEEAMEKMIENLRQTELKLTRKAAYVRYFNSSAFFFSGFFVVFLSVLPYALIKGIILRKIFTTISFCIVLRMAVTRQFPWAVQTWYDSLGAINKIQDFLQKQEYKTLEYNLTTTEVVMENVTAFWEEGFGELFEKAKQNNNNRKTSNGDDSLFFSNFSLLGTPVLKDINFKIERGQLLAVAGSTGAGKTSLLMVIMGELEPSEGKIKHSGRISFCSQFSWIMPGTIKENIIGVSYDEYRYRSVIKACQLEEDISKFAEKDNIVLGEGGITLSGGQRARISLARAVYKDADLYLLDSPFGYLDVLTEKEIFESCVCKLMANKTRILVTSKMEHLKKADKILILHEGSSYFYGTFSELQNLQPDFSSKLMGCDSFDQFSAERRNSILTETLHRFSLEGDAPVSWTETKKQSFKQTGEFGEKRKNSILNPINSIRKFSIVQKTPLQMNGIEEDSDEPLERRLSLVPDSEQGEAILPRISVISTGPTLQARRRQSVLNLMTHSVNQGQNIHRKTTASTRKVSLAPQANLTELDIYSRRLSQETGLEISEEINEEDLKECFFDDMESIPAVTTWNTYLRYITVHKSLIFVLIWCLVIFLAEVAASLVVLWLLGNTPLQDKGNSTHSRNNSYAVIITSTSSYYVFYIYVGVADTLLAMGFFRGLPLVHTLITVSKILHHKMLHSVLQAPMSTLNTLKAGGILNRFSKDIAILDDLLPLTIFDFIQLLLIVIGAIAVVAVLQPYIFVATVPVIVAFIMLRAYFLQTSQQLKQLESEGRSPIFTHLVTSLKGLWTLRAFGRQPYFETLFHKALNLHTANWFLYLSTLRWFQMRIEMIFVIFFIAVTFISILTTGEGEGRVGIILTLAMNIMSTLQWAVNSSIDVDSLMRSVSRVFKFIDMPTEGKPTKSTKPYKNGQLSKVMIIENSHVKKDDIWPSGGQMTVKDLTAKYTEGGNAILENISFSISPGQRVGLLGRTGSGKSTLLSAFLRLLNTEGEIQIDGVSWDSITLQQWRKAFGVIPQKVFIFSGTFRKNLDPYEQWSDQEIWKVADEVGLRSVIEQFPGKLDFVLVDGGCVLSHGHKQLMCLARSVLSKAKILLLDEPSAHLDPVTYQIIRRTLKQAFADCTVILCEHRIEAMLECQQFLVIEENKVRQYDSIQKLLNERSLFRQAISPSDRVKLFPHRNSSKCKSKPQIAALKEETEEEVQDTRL

## CCOC(=O)c1c(Br)c2c(n1Cc1ccc(C)cc1)-c1[nH]c(=O)c(S(=O)(=O)c3ccccc3)cc1CC2 [PP008, Ethyl 7-(benzenesulfonyl)-3-bromo-1-[(4-methylphenyl)methyl]-8-oxo-4,5,8,9-tetrahydro-1H-pyrrolo[3,2-h]quinoline-2-carboxylate]
[1]
  calcium-dependent chloride secretion: does not modify
[2]
  effect of combination with VX-809 on F508del-CFTR current: synergistic effect
